The source made the active and inactive calls.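 The calls were made as follows: active = compounds lowering labeled HDL uptake signal, with AC50 at most ten times the top tested dose; inconclusive = flat partial inhibition between 30 and 70% or unreliable fit; inactive = the rest.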
Tested on: not listed separately
Assay: SR-BI mediated HDL uptake inhibitors, dose response, ldlA[mSR-BI] CHO cells, dry powder samples (AID 540354)
Settings: ldlA[mSR-BI] CHO cells, DiI-HDL uptake fluorescence, 3 h; at 35 µM (top of the series)

SMILES	activity change, negative = inhibition
C[C@H](CO)N1C[C@H](C)[C@H](CN(C)S(=O)(=O)c2ccc(F)cc2)Oc2ccc(NS(C)(=O)=O)cc2C1=O	-1.08% (inactive)
C[C@H](CO)N1C[C@H](C)[C@H](CN(C)S(=O)(=O)c2ccc(F)cc2)Oc2ccc(NC(=O)Cc3ccccc3)cc2C1=O	-3.31% (inactive)

Tested on: ldlA[mSR-BI] CHO cells, DiI-HDL uptake fluorescence, 3 h
Assay: as above
Settings: not given

SMILES	AC50
CC(OC(=O)c1cccc(NS(C)(=O)=O)c1)C(=O)Nc1ccc(N2CCOCC2)cc1 (stereo not drawn)	335 nM
O=C(Nc1ccccc1)c1ccccc1NS(=O)(=O)c1ccc(Cl)cc1	47800 nM
CCOC(=O)Nc1cccc(NC(=O)c2cc(OC)cc(OC)c2)c1	546 nM
O=C(Nc1ccc(-c2nc3cc(NC(=O)c4ccccc4Cl)ccc3o2)cc1)c1ccccc1Cl	16 nM
C[C@H]1CN([C@@H](C)CO)C(=O)c2cccc(NC(=O)Nc3ccc(F)cc3)c2O[C@@H]1CN(C)Cc1ccc(Cl)c(Cl)c1	1390 nM
C[C@H]1CN([C@@H](C)CO)C(=O)c2cccc(NC(=O)Nc3ccccc3)c2O[C@@H]1CN(C)Cc1ccccc1	13400 nM
O=C(Nc1ccc(Cl)cc1C(=O)c1ccc(Cl)cc1)c1cc(Br)ccc1NS(=O)(=O)c1ccc(Cl)cc1	494 nM
O=C(Nc1ccc(-c2nc3ccc(NC(=O)c4ccccc4)cc3[nH]2)cc1)c1ccccc1	526 nM
C[C@H]1CN([C@@H](C)CO)C(=O)c2cccc(NC(=O)Nc3ccccc3)c2O[C@@H]1CN(C)C	17300 nM
O=C(Nc1ccc(-c2nc3cc(NC(=O)c4ccc(NC(=O)c5cccc6ccccc56)cc4)ccc3[nH]2)cc1)c1ccc(NC(=O)c2cccc3ccccc23)cc1	< 15 nM
O=C(Nc1cc(Cl)ccc1Cl)c1cc(Cl)ccc1NS(=O)(=O)c1ccc(Cl)c([N+](=O)[O-])c1	444 nM
Cc1cc(C)n(CC(=O)NC2CCCc3c2cnn3-c2ccc(C)c(C)c2)n1 (stereo not drawn)	376 nM
C[C@H]1CN([C@@H](C)CO)C(=O)c2cccc(NC(=O)Nc3ccccc3)c2O[C@@H]1CN(C)Cc1ccc(Cl)c(Cl)c1	1500 nM
CCc1sc(N2C(=O)C3C4CCC(C4=C(C)C)C3C2=O)nc1-c1ccccc1 (stereo not drawn)	754 nM
O=C(Nc1cc(Cl)ccc1Cl)c1cc(Br)ccc1NS(=O)(=O)c1ccc(Cl)c([N+](=O)[O-])c1	426 nM
C[C@@H]1CN([C@@H](C)CO)C(=O)c2cc(NC(=O)Cc3cn(C)c4ccccc34)ccc2O[C@H]1CN(C)S(=O)(=O)c1ccc(F)cc1	2190 nM
CC(C)OCCCNC(=O)c1ccc(C2SCC(=O)N2Cc2ccco2)cc1 (stereo not drawn)	1380 nM
CNC[C@@H]1Oc2ccc(NC(=O)Cc3cn(C)c4ccccc34)cc2C(=O)N([C@H](C)CO)C[C@H]1C	48000 nM
CCOC(=O)N1CCC(NC(=O)c2ccc3c(c2)N(Cc2ccc(F)cc2)CCS3)CC1	32 nM

SMILES	AC50
Cc1ccccc1NC(=O)NCC1CCN(c2ccc(S(=O)(=O)N3CCOCC3)cc2)CC1	262 nM
C[C@H](CO)N1C[C@H](C)[C@@H](CN(C)S(=O)(=O)c2ccc(F)cc2)Oc2ccc(NC(=O)Cc3cn(C)c4ccccc34)cc2C1=O	38500 nM
O=C(Nc1ccccc1Cl)c1ccccc1NS(=O)(=O)c1ccccc1	33300 nM
C[C@H]1CN([C@@H](C)CO)C(=O)c2cccc(N(C)C)c2O[C@@H]1CN(C)Cc1ccc(Cl)c(Cl)c1	42400 nM
CCOc1ccccc1/C=C/c1onc(C)c1S(=O)(=O)N1CCC(C(=O)NC(C)(C)C)CC1	77 nM
N#Cc1sc2nc(C3CC3)cc(-c3ccc(Cl)cc3)c2c1N	1640 nM
C[C@@H]1CN([C@H](C)CO)C(=O)c2cc(NC(=O)Cc3cn(C)c4ccccc34)ccc2O[C@H]1CN(C)C(=O)Nc1ccc(F)cc1	3290 nM
C[C@@H]1CN([C@H](C)CO)C(=O)c2cc(NC(=O)Cc3cn(C)c4ccccc34)ccc2O[C@H]1CN(C)S(=O)(=O)c1ccccc1	1290 nM
COC(=O)c1cn(C(=O)c2cccc3ccccc23)c2ccccc12	3610 nM
CC(C)NC(=O)Nc1cccc2c1O[C@H](CN(C)Cc1ccc(Cl)c(Cl)c1)[C@@H](C)CN([C@@H](C)CO)C2=O	1050 nM
COc1ccc([C@H]2CC(=O)C=C(c3cccc4c3sc3ccccc34)C2)cc1OC	208 nM
COc1ccc(OC)c(CCNC(=O)c2ccc3c(c2)N(Cc2ccc(F)cc2)CCS3)c1	559 nM
Cc1cc(SC(C)C(=O)Nc2ncc(Cl)cc2Cl)nc2ccccc12 (stereo not drawn)	491 nM
C[C@H](CO)N1C[C@H](C)[C@H](CN(C)S(=O)(=O)c2ccc(F)cc2)Oc2ccc(NC(=O)CCC(F)(F)F)cc2C1=O	> 35000 nM (inactive)
C[C@H]1CN([C@@H](C)CO)C(=O)c2cccc(NC(=O)Nc3ccccc3)c2O[C@@H]1CN(C)Cc1ccc(C(F)(F)F)cc1	28000 nM
Cc1ccc(-c2nnc(N3CCC(C)CC3)c3ccccc23)cc1C	197 nM
CCC(=O)N1CCc2cc(-c3csc(NC(=O)c4ccco4)n3)ccc21	17 nM
O=C(Nc1ccc(-c2nc3ccc(NC(=O)c4ccc(Cl)cc4)cc3[nH]2)cc1)c1ccc(Cl)cc1	< 15 nM
COc1cccc(-c2csc(N3CCN(C(=S)Nc4cccc(Cl)c4)CC3)n2)c1	1890 nM

SMILES	AC50
CC(C)(C)NC(=O)N1CCN(c2ncccc2C(F)(F)F)CC1	292 nM
C[C@H]1CN([C@@H](C)CO)C(=O)c2cccc(NS(C)(=O)=O)c2O[C@@H]1CN(C)Cc1ccc(Cl)c(Cl)c1	19400 nM
C[C@@H]1CN([C@H](C)CO)C(=O)c2cc(NC(=O)Cc3cn(C)c4ccccc34)ccc2O[C@@H]1CN(C)S(=O)(=O)c1ccc(F)cc1	25700 nM
Cc1ccc2oc(-c3cccc(NC(=O)c4cc(-n5cnnc5)ccc4Cl)c3)nc2c1	593 nM
C[C@@H]1CN([C@H](C)CO)C(=O)c2cc(NC(=O)Cc3cn(C)c4ccccc34)ccc2O[C@H]1CN(C)S(C)(=O)=O	18200 nM
CCOc1ccc(NC(=O)CN2CCN(CC(=O)Nc3cc(OC)cc(OC)c3)CC2)cc1	< 30 nM
O=C(Nc1ccc(-c2nc3cc(NC(=O)c4ccccc4[N+](=O)[O-])ccc3o2)cc1)c1ccccc1[N+](=O)[O-]	< 15 nM
CCc1cc2cc3c(cc2nc1SCC(=O)OC(C)C)OCO3	79 nM
Cc1cc(C(=O)C(C)OC(=O)C2=NNC(=O)CC2)c(C)n1-c1ccc(OC(F)F)cc1 (stereo not drawn)	1300 nM
COc1ccc(-c2nnn(CC(=O)N(C3CCCCC3)C(C)C(=O)NC3CCCC3)n2)cc1OC (stereo not drawn)	28 nM
CCn1c(COc2c(C)cccc2C)nnc1SCC(=O)N1CCN(c2ccccc2)CC1	2790 nM
O=C(Nc1cccc(NC(=O)c2cc([N+](=O)[O-])ccc2Cl)n1)c1cc([N+](=O)[O-])ccc1Cl	1960 nM
O=C(Nc1cc(C(F)(F)F)ccc1Cl)c1ccccc1NS(=O)(=O)c1ccc(Cl)cc1	1380 nM
O=C(Nc1ccc(-c2nc3ccc(NC(=O)c4ccccc4[N+](=O)[O-])cc3[nH]2)cc1)c1ccccc1[N+](=O)[O-]	251 nM
C[C@@H]1CN([C@H](C)CO)C(=O)c2cc(NC(=O)Cc3cn(C)c4ccccc34)ccc2O[C@H]1CN(C)S(=O)(=O)c1ccc(F)cc1	1090 nM
Nc1ccc(C(=O)Nc2ccc(-c3nc4ccc(NC(=O)c5ccc(N)cc5)cc4[nH]3)cc2)cc1	813 nM
C[C@@H]1CN([C@H](C)CO)C(=O)c2cc(NC(=O)Cc3cn(C)c4ccccc34)ccc2O[C@H]1CN(C)S(=O)(=O)c1ccc(Cl)cc1	454 nM
Cc1cc(C)c2c(c1)NC(c1cc3c(cc1Br)OCO3)C1CC=CC21 (stereo not drawn)	505 nM
